Results: patent publication US10188659B2, “IGF-1R signaling pathway inhibitors useful in the treatment of neurodegenerative diseases” (YISSUM RESEARCH DEVELOPMENT COMPANY OF THE HEBREW …, priority 2013, dated 2019)
“And” between values parts separate entries of the source, which are not always exact repeats. Equal entries are not always repeated.

Tests used:
[1] = system: DAF-16::GFP expressing worms (strain TJ356); assay: DAF-16 localization assay; format: in vivo, Caenorhabditis elegans; conditions: 300 μM, 6 hours
Protocol: Synchronized TJ356 worms were grown on the EV control bacteria. At the indicated ages (days 1 of adulthood), 25 worms were transferred onto daf-2 RNAi bacteria for the indicated time (6 h). […] (Molecular Probes), Invitrogen, Carlsbad, Calif., USA]. DAPI and GFP signals were visualized using a fluorescent microscope (Leica DM6000 B; Leica, Wetzlar, Germany). […] The worms were let hatched and develop on control bacteria harboring an empty vector (EV) (FIG. 1A) or on daf-2 RNAi bacteria (FIG. 1B). […] The worms were then fixed and stained with DAPI. […] Paralyzed worms were scored daily. […] The worms were placed on plates seeded with EV bacteria and exposed to 35° C. for 15 hours and survival rates were scored by counting the surviving worms. The results of a representative experiment (three repeats were performed) is presented on FIG. 3.

[2] = system: Aβ worms (strain CL2006); assay: Paralysis assay in Aβ worms; format: in vivo, Caenorhabditis elegans
[3] = system: CF512 worms; assay: Heat stress assay; format: in vivo, Caenorhabditis elegans; conditions: for stress resistance (survival): 300 μM, 3 hours at day 1, 35° C. for 15 hours
[4] = system: CF512 worms; assay: UV stress assay; format: in vivo, Caenorhabditis elegans; conditions: sub-lethal UV dose
[5] = system: AKT; assay: IGF1-induced AKT phosphorylation, Western blot in A375 cells; format: cell-based, human
[6] = system: hsp-16.2 promoter (strain CL2070); assay: hsp-16.2 promoter GFP induction after heat, Western blot; format: in vivo, Caenorhabditis elegans; conditions: CL2070 worms, 33° C. three hours
[7] = system: hsp-70 promoter (hsp-70p::GFP); assay: hsp-70 promoter GFP induction after heat, fluorescent microscopy; format: in vivo, Caenorhabditis elegans; conditions: 600 μM, heat stress 33° C., 3 h
[8] = system: DAF-16, HSF-1 and SKN-1 target genes; assay: Real-time quantitative PCR of IIS target genes; format: in vivo, Caenorhabditis elegans; conditions: CF512 worms, 600 μM, 3 hours days 1 and 2, vs control
[9] = system: Aβ; assay: Aβ aggregation, Western blot after high-speed centrifugation; format: in vivo, Caenorhabditis elegans; conditions: CL2006 worms, WB with 6E10 antibody
[10] = system: Aβ; assay: Aβ immunofluorescence in worms; format: in vivo, Caenorhabditis elegans; conditions: immuno-fluorescence
[11] = system: polyQ40-YFP worms; assay: polyQ40-YFP foci count; format: in vivo, Caenorhabditis elegans
[12] = system: polyQ35-YFP worms; assay: Motility assay (crawling speed); format: in vivo, Caenorhabditis elegans; conditions: 600 μM daily day 1 to 11
[13] = system: polyQ40-YFP; assay: polyQ40-YFP aggregation (WB, high-speed pellets, native gel); format: in vivo, Caenorhabditis elegans
[14] = system: IRS1 and IRS2; assay: IRS1/IRS2 Ser-phosphorylation and degradation, Western blot in A375 cells

## Oc1cc(CNC(=S)/C=C/c2cc(O)c(O)c(Br)c2)cc(O)c1O [Compound 29]
[1]
  nuclear localization of DAF-16 (co-localization of DAPI and GFP signals): confirmed the nuclear localization of DAF-16
[2]; 300 μM, soaked 3 hours days 1 and 2, then daily 25 μl
  paralysis rates: increased in reduced rates compared to the untreated control
[3]
  stress resistance (survival): elevate stress resistance of CF512 worms

## Oc1cc(CNC(=S)/C=C/c2ccc(O)c(O)c2Br)cc(O)c1O [Compound 39]
[2]; 600 μM compound (or daf-2 RNAi throughout), day 12 of adulthood
  rate of paralyzed worms at day 12: 29%
[3]
  stress resistance (survival): elevate stress resistance of CF512 worms
[3]; 15 hours at 35° C.
  raise of survival rates compared to the untreated population: 33%
  survival rate after heat stress: 72% and 71.7%
[4]
  mean survival after UV radiation (days±SEM): 8.76 ± 0.21 days
[5]
  AKT phosphorylation, kinetic experiment: partial inhibition of AKT phosphorylation
[5]; A375 cells, short and long exposures
  IGF1-induced activation of AKT (phosphorylation on threonine 308 and serine 473): abolished the IGF1-induced activation of AKT
[6]; 150 μM
  hsp-16.2 promoter driven GFP level: no detectable effect
[6]; 300 μM
  hsp-16.2 promoter driven GFP level: moderate effect
[6]; 600 μM
  hsp-16.2 promoter driven GFP level: remarkably increased the induction of GFP
[6]; 900 μM
  hsp-16.2 promoter driven GFP level: lower effect than that of 600 μM
[7]
  hsp-70 promoter driven GFP fluorescence: elevated GFP fluorescence levels
[8]
  average increase of expression of DAF-16 and SKN-1 target genes: 19-37%
  elevation of expression level of hsp-70: approximately 170%
[9]
  high molecular-weight Aβ aggregates: elevated amount of high molecular-weight Aβ aggregates
[10]
  Aβ amounts and distribution: enhanced the amount of Aβ and led to its accumulation in the central part of the animal's body
[11]
  average number of polyQ40-YFP foci/worm: 52.78 foci/worm
[12]
  average crawling speed at day 11 relative to day 1 of adulthood: 32.9%
[13]; 1% native gel
  polyQ40-YFP aggregation, YFP fluorescence on native gel: did not exhibit elevated rates of polyQ40-YFP aggregation
[13]; WB after high-speed centrifugation
  aggregated polyQ40-YFP in high-speed pellets: no increase was seen
[13]; WB, GFP antibody, day 2
  SDS resistant polyQ40-YFP aggregates, whole worm homogenates: no such material could be detected
[14]; long exposure (19 hours)
  IRS1 and IRS2 protein levels: elimination of IRS1 and IRS2
[14]; short exposure (4 hours)
  phosphorylation of IRS1 and IRS2 on serine residues: massive phosphorylation on serine residues
